Structures are written as SMILES. Like-named read-outs stand apart in the source and are kept apart here.

In one series the test system is neurotoxicity (rotarod). The series is described as follows: Neurotoxicity (rotarod). It counts as in vivo. The note with it: mice, protective index. Here is the method:
The measurement of neurotoxicity of the test compounds was conducted by the method of Dunham and Miya [Dunham, N. W. and Miya, T. S. 1957. A note on a simple apparatus for detecting neurological deficit in rats and mice. J. Am. Pharm. Assoc. (Baltimore) 46: 208-209]. In the method, motor abilities of the test animals can be determined by observing whether the test animals can walk without falling from a rotator, thereby determining the value of neurotoxicity of each compound. […] They were pre-trained on the rotarod (Rotarod; Columbus instrument, rota-max, USA) at 6 rpm for 5 min 24 hr prior to the test. The peak time was determined by administration test material's random dose for 0.5, 1, 2, 4 hour. […] The ratio of TD50 to ED50(TD50/ED50) is called as a protective index, and useful as a parameter for comparison of pharmaceutical efficacy and neurotoxicity.
On the technique in general: In the rotarod test animals must keep their balance on a rotating rod.

In series [1] the test system is Lithium-pilocarpine induced status epilepticus. The series is described as follows: animal or person. It is filed as in vivo, rat. The note with it: for responders at 46 mg/kg: Rattus norvegicus, iv, read-out: Protection %; for Protection %: rat, in vivo.
Series [2] has as its system PTZ-induced clonic seizure. The series is described as follows: animal or person. It is filed as in vivo, mice. The note with it: Mus musculus, ip; for responders at 20.4 mg/kg: read-out: Protection %; for ED50: read-out: PTZ test ED50.
The test system of series [3] is maximal electroshock seizure. The series is described as follows: animal or person. It counts as in vivo, mice.
Series [4] deals with Lithium-pilocarpine induced status epilepticus. The series is described as follows: animal or person. The conditions noted are these: Rattus norvegicus, ip, 1.5 h, read-out: Protection %. It is filed as in vivo.
In series [5] the test system is benzodiazepine-resistant status epilepticus. The series is described as follows: animal or person. It counts as in vivo. The conditions noted are these: Rattus norvegicus, ip, 10 min.
Another series concerns 6 Hz-induced seizure. The series is described as follows: animal or person. It counts as in vivo, mice. The note with it: ip.
Series [6] deals with lamotrigene-resistant amygdala kindled rat. The series is described as follows: animal or person. It counts as in vivo. The note with it: ip.
In series [7] the test system is PTZ-induced clonic seizure. The series is described as follows: animal or person. The note with it: Rattus norvegicus, ip. It is filed as in vivo, rats.

Take `CC(OC(N)=O)C(O)c1ccccc1Cl` (racemic) [Compound 3, 1-(2-chlorophenyl)-1-hydroxypropyl-2-carbamate]: in the series with neurotoxicity (rotarod), the “PI(TD50/ED50 in MES)” value was determined as 12.0.
For the compound `CCC(OC(N)=O)C(O)c1ccccc1Cl` (racemic) [Compound 8, 1-(2-chlorophenyl)-1-hydroxybutyl-2-carbamate], in series [1], the responders at 46 mg/kg was 50%. Moreover, the responders at 20.4 mg/kg in series [2] stood at 50%.
`CCCCC(OC(N)=O)C(O)c1ccccc1Cl` (racemic) [Compound 14, 1-(2-chlorophenyl)-1-hydroxyhexyl-2-carbamate]: the responders at 20.4 mg/kg in series [2] was determined as 16.7%.
On the same count and under the same terms, under `CNC(=O)O[C@H](C)[C@H](O)c1ccccc1Cl` (racemic) [Compound 29, 1-(2-chlorophenyl)-1-hydroxypropyl-2-N-methylcarbamate] stands 33.3%.
With `CCCNC(=O)O[C@H](C)[C@H](O)c1ccccc1Cl` (racemic) [Compound 30, 1-(2-chlorophenyl)-1-hydroxypropyl-2-N-propylcarbamate], in series [3] (mouse, in vivo), the Protection % was 200 ^a(25%). In series [2], the responders at 20.4 mg/kg came to 33.3%.
As for `CC(C)NC(=O)O[C@H](C)[C@H](O)c1ccccc1Cl` (racemic) [Compound 31, 1-(2-chlorophenyl)-1-hydroxypropyl-2-N-isopropylcarbamate], the responders at 46 mg/kg in series [1] amounted to 100%. In addition, the responders at 20.4 mg/kg in series [2] turned out to be 83.3%.
Consider `C[C@@H](OC(=O)NC1CC1)[C@H](O)c1ccccc1Cl` (racemic) [Compound 32, 1-(2-chlorophenyl)-1-hydroxypropyl-2-N-cyclopropylcarbamate], for which the responders at 200 mg/kg in series [3] (Mus musculus, po, read-out: Protection %) was determined as 100%. The responders at 46 mg/kg in series [1] was 100%. Also, the responders at 20.4 mg/kg in series [2] was 16.7%.
For `C[C@H](OC(=O)NC1CC1)[C@@H](O)c1ccccc1Cl` (single isomer, unassigned) [Compound 25], the responders at 60 mg/kg in series [4] was found to be 100%. In addition, in series [1], the Protection % result is “^a46 (100%)”. Also, the responders at 20.4 mg/kg in [2] was 66.7%.
As a reminder, the ED50 is the dose at which the effect has come halfway, by size or by number of responders. With `C[C@H](OC(N)=O)[C@@H](O)c1ccccc1Cl` [Compound 1, 1-(2-chlorophenyl)-(S)-1-hydroxypropyl-(S)-2-carbamate], the ED50 in [5] was determined as 96.9 mg/kg; in the series on 6 Hz-induced seizure (Mus musculus), 14.6 mg/kg; in the series on 6 Hz-induced seizure (mouse, in vivo), 13.66 mg/kg; in [6] (Rattus norvegicus), 17 mg/kg. In the series with neurotoxicity (rotarod), the “PI(TD50/ED50 in MES)” value is 16.8. The “Seizure Score” value in series [6] (rat, in vivo) is listed as 2.0 ± 0.7(Control: 5.0 ± 0.0).
On to `C[C@@H](OC(N)=O)[C@H](O)c1ccccc1Cl` [Compound 2, 1-(2-chlorophenyl)-(R)-1-hydroxypropyl-(R)-2-carbamate], for which the responders at 46 mg/kg in series [1] amounted to 50%. In addition, in the series on neurotoxicity (rotarod), the “PI(TD50/ED50 in MES)” value is on record as 7.3. For the same compound, in series [7] (read-out: PTZ test ED50), the median effective dose (ED50) came out at 51.9 mg/kg.
Take `C[C@@H](OC(N)=O)[C@@H](O)c1ccccc1Cl` [Compound 4, 1-(2-chlorophenyl)-(S)-1-hydroxypropyl-(R)-2-carbamate]: the responders at 46 mg/kg in series [1] amounted to 100%. In [2], the ED50 came to 26.7 mg/kg. In addition, in series [7] (read-out: Protection %), the responders at 30 mg/kg was 50%.
With `C[C@H](OC(N)=O)[C@H](O)c1ccccc1Cl` [Compound 5, 1-(2-chlorophenyl)-(R)-1-hydroxypropyl-(S)-2-carbamate], the “PI(TD50/ED50 in MES)” value in the series with neurotoxicity (rotarod) worked out at 3.3.
In the case of `CC[C@H](OC(N)=O)[C@@H](O)c1ccccc1Cl` [Compound 6, 1-(2-chlorophenyl)-(S)-1-hydroxybutyl-(S)-2-carbamate], the responders at 46 mg/kg in series [1] is 100%. The 50% effective dose (ED50) in [2] is 17.9 mg/kg. In [7] (read-out: Protection %), the responders at 30 mg/kg came out at 50%.
With `CC(C)[C@H](OC(N)=O)[C@@H](O)c1ccccc1Cl` [Compound 9, 1-(2-chlorophenyl)-(8)-1-hydroxy-3-methyl-butyl-(8)-2-carbamate], the responders at 20.4 mg/kg in series [2] was 33.3%.
Still for that read-out and setting: under `CCCC[C@H](OC(N)=O)[C@@H](O)c1ccccc1Cl` [Compound 12, 1-(2-chlorophenyl)-(S)-1-hydroxyhexyl-(S)-2-carbamate] stands 33.3%; under `CCCC[C@@H](OC(N)=O)[C@H](O)c1ccccc1Cl` [Compound 13, 1-(2-chlorophenyl)-(R)-1-hydroxyhexyl-(R)-2-carbamate], 50%.
Consider `CNC(=O)O[C@@H](C)[C@@H](O)c1ccccc1Cl` [Compound 15, 1-(2-chlorophenyl)-(S)-1-hydroxypropyl-(S)-2-N-methylcarbamate], for which, in series [1], the responders at 46 mg/kg was 100%. Further, the responders at 25 mg/kg in series [7] (read-out: Protection %) was found to be 33.3%.
Take `CCCNC(=O)O[C@@H](C)[C@@H](O)c1ccccc1Cl` [Compound 16, 1-(2-chlorophenyl)-(S)-1-hydroxypropyl-(S)-2-N-propylcarbamate]: the responders at 46 mg/kg in [1] turned out to be 100%. Moreover, the responders at 30 mg/kg in [7] (read-out: Protection %) was 33.3%.
Regarding `C[C@H](OC(=O)NC1CC1)[C@@H](O)c1ccccc1Cl` [Compound 18, 1-(2-chlorophenyl)-(S)-1-hydroxypropyl-(R)-2-N-cyclopropylcarbamate], the Protection % entry in series [1] is reported as “^a46 (66.7%)”. Besides, in series [7] (read-out: Protection %), the responders at 30 mg/kg amounted to 16.7%.
In the case of `CCCNC(=O)O[C@@H](C)[C@@H](O)c1ccccc1Cl` [Compound 23, 1-(2-chlorophenyl)-(R)-1-hydroxypropyl-(R)-2-N-propylcarbamate], in [2], the responders at 20.4 mg/kg worked out at 50%.
Still for that read-out and setting: under `C[C@H](OC(N)=O)[C@@H](O)c1ccc(Cl)cc1Cl` [Compound 36, 1-(2,4-dichlorophenyl)-(S)-1-hydroxypropyl-(S)-2-carbamate] stands 33.3%.
With `C[C@H](OC(N)=O)[C@@H](O)c1c(Cl)cccc1Cl` [Compound 37, 1-(2,6-dichlorophenyl)-(S)-1-hydroxypropyl-(S)-2-carbamate], the responders at 46 mg/kg in [1] worked out at 100%. Further, the ED50 in series [2] amounted to 25.7 mg/kg. Also, the “PI(TD50/ED50 in MES)” value in the series on neurotoxicity (rotarod) is recorded as 5.1. Also, in series [7] (read-out: Protection %), the responders at 30 mg/kg amounted to 50%.
`C[C@H](OC(N)=O)[C@@H](O)c1cccc(Cl)c1Cl` [Compound 38, 1-(2,3-dichlorophenyl)-(S)-1-hydroxypropyl-(S)-2-carbamate]: the responders at 46 mg/kg in series [1] came to 50%. In series [2], the responders at 20.4 mg/kg was 50%.
`CC[C@H](OC(N)=O)[C@@H](O)c1ccc(Cl)cc1Cl` [Compound 39, 1-(2,4-dichlorophenyl)-(S)-1-hydroxybutyl-(S)-2-carbamate]: in series [2], the ED50 was found to be 24.3 mg/kg.
In the case of `CC[C@H](OC(N)=O)[C@@H](O)c1c(Cl)cccc1Cl` [Compound 40, 1-(2,6-dichlorophenyl)-(S)-1-hydroxybutyl-(S)-2-carbamate], the responders at 46 mg/kg in [1] is 100%. The responders at 20.4 mg/kg in series [2] worked out at 33.3%.
As to `CC(C)[C@H](OC(N)=O)[C@@H](O)c1c(Cl)cccc1Cl` [Compound 42, 1-(2,6-dichlorophenyl)-(S)-1-hydroxy-3-methyl-butyl-(S)-2-carbamate], the responders at 20.4 mg/kg in series [2] turned out to be 50%.
In the case of `CCCC[C@H](OC(N)=O)[C@@H](O)c1ccc(Cl)cc1Cl` [Compound 43, 1-(2,4-dichlorophenyl)-(S)-1-hydroxyhexyl-(S)-2-carbamate], the responders at 25 mg/kg in series [7] (read-out: Protection %) amounted to 33.3%.
For `CCCC[C@H](OC(N)=O)[C@@H](O)c1c(Cl)cccc1Cl` [Compound 44, 1-(2,6-dichlorophenyl)-(S)-1-hydroxyhexyl-(S)-2-carbamate], the responders at 20.4 mg/kg in [2] was determined as 33.3%.
Regarding `C[C@@H](OC(N)=O)[C@H](O)c1ccc(Cl)cc1Cl` [Compound 45, 1-(2,4-dichlorophenyl)-(R)-1-hydroxypropyl-(R)-2-carbamate], in series [1], the responders at 46 mg/kg was found to be 33.3%. Moreover, in [2], the responders at 20.4 mg/kg was found to be 16.7%. Also, the responders at 50 mg/kg in [7] (read-out: Protection %) was 16.7%.
Consider `C[C@@H](OC(N)=O)[C@H](O)c1c(Cl)cccc1Cl` [Compound 46, 1-(2,6-dichlorophenyl)-(R)-1-hydroxypropyl-(R)-2-carbamate], for which the responders at 46 mg/kg in [1] was determined as 50%. Besides, the responders at 20.4 mg/kg in [2] is 50%.
In the case of `C[C@H](OC(N)=O)[C@@H](O)c1ccccc1F` [Compound 63, 1-(2-fluorophenyl)-(S)-1-hydroxypropyl-(S)-2-carbamate], the responders at 46 mg/kg in series [1] stood at 50%. Besides, in [2], the responders at 20.4 mg/kg was found to be 50%.
For `C[C@H](OC(N)=O)[C@@H](O)c1ccccc1I` [Compound 65, 1-(2-iodophenyl)-(S)-1-hydroxypropyl-(S)-2-carbamate], the responders at 46 mg/kg in series [1] turned out to be 100%. In series [2], the responders at 20.4 mg/kg worked out at 100%.
For the compound `CC[C@H](OC(N)=O)[C@@H](O)c1ccccc1I` [Compound 67, 1-(2-iodophenyl)-(S)-1-hydroxybutyl-(S)-2-carbamate], the responders at 46 mg/kg in series [1] came to 100%. The ED50 in series [2] stood at 23.1 mg/kg. The responders at 30 mg/kg in series [7] (read-out: Protection %) was found to be 33.3%.

Values taken from patent publication US9682059B2 (priority 2013, dated 2017).
